From patent publication US20150258059A1, “ANTIMICROBIAL AND RADIOPROTECTIVE COMPOUNDS” (BioDiem, Ltd, priority 2001, published 2015)
In brackets after ≈: the same amount, converted by molar mass. Where two headings read alike, the source gives them in different places.

Columns and labels:
[1] = tested on: Pseudomonas aeruginosa B-601; experiment: Sensitivity of strains: suppression of growth; format: cell-based; conditions: Compound (1) 1.0%; antibiotics disc method
Escherichia coli B-683 = experiment: Sensitivity of strains: suppression of growth; format: cell-based; conditions: Compound (1) 1.0%; antibiotics disc method
[2] = tested on: Neisseria meningitidis M-A72; experiment: Sensitivity of strains: suppression of growth; format: cell-based; conditions: Compound (1) 1.0%; antibiotics disc method
[3] = tested on: Shigella flexneri M-2A6907; experiment: Sensitivity of strains: suppression of growth; format: cell-based; conditions: Compound (1) 1.0%; antibiotics disc method
Escherichia coli B-65 = experiment: Sensitivity of strains: suppression of growth; format: cell-based; conditions: Compound (1) 1.0%; antibiotics disc method
[4] = tested on: Klebsiella pneumoniae M-248; experiment: Sensitivity of strains: suppression of growth; format: cell-based; conditions: Compound (1) 1.0%; antibiotics disc method
[5] = tested on: Citrobacter diversus B-678; experiment: Sensitivity of strains: suppression of growth; format: cell-based; conditions: Compound (1) 1.0%; antibiotics disc method
Shigella sonnei B-720 = experiment: Sensitivity of strains: suppression of growth; format: cell-based; conditions: Compound (1) 1.0%; antibiotics disc method
Acinetobacter B-681 = experiment: Sensitivity of strains: suppression of growth; format: cell-based; conditions: Compound (1) 1.0%; antibiotics disc method
[6] = tested on: Staphylococcus epidermidis BK-30; experiment: Sensitivity of strains: suppression of growth; format: cell-based; conditions: Compound (1) 1.0%; antibiotics disc method
[7] = tested on: Staphylococci epidermidis D-513; experiment: Sensitivity of strains: suppression of growth; format: cell-based; conditions: Compound (1) 1.0%; antibiotics disc method
[8] = tested on: Corynebacterium diphtheriae B-670; experiment: Sensitivity of strains: suppression of growth; format: cell-based; conditions: Compound (1) 1.0%; antibiotics disc method
Alkaligenes sp. B-689 = experiment: Sensitivity of strains: suppression of growth; format: cell-based; conditions: Compound (1) 1.0%; antibiotics disc method
[9] = tested on: Staphylococcus aureus B-674; experiment: Sensitivity of strains: suppression of growth; format: cell-based; conditions: Compound (1) 1.0%; antibiotics disc method
[10] = tested on: Enterobacter aerogenes B-687; experiment: Sensitivity of strains: suppression of growth; format: cell-based; conditions: Compound (1) 1.0%; antibiotics disc method
Acinetobacter B-677 = experiment: Sensitivity of strains: suppression of growth; format: cell-based; conditions: Compound (1) 1.0%; antibiotics disc method
[11] = tested on: Enterobacter aerogenes B-679; experiment: Sensitivity of strains: suppression of growth; format: cell-based; conditions: Compound (1) 1.0%; antibiotics disc method
[12] = tested on: Staphylococcus aureus M-209; experiment: Sensitivity of strains: suppression of growth; format: cell-based; conditions: Compound (1) 1.0%; antibiotics disc method
[13] = tested on: Salmonella paratyphi M-16469; experiment: Sensitivity of strains: suppression of growth; format: cell-based; conditions: Compound (1) 1.0%; antibiotics disc method
[14] = tested on: Staphylococcus aureus M-12159; experiment: Sensitivity of strains: suppression of growth; format: cell-based; conditions: Compound (1) 1.0%; antibiotics disc method
Bacillus sp. B-575 = experiment: Sensitivity of strains: suppression of growth; format: cell-based; further: key: + sensitive strains; + moderately sensitive strains; − stable strains
[15] = tested on: β-hemolytic streptococcus B-624; experiment: Sensitivity of strains: suppression of growth; format: cell-based; conditions: Compound (1) 1.0%; antibiotics disc method
[16] = tested on: Conditional pathogenic enterobacteria gram-negative aerobic bacilli; format: cell-based; further: key: + sensitive strains; + moderately sensitive strains; − stable strains
[17] = tested on: Salmonella typhimurium M-727; experiment: Sensitivity of strains: suppression of growth; format: cell-based; conditions: Compound (1) 1.0%; antibiotics disc method
[18] = tested on: Staphylococcus aureus B-685; experiment: Sensitivity of strains: suppression of growth; format: cell-based; conditions: Compound (1) 1.0%; antibiotics disc method
[19] = tested on: Klebsiella pneumoniae M-A21; experiment: Sensitivity of strains: suppression of growth; format: cell-based; conditions: Compound (1) 1.0%; antibiotics disc method
[20] = tested on: Yersinia pseudotuberculosis; format: cell-based; conditions: Compound (1) 1.0%; antibiotics disc method
[21] = tested on: Neisseria meningitidis M-6231; experiment: Sensitivity of strains: suppression of growth; format: cell-based; conditions: Compound (1) 1.0%; antibiotics disc method
Escherichia coli M-17 = experiment: Sensitivity of strains: suppression of growth; format: cell-based; conditions: Compound (1) 1.0%; antibiotics disc method
[22] = tested on: γ-hemolytic streptococcus B-672; experiment: Sensitivity of strains: suppression of growth; format: cell-based; conditions: Compound (1) 1.0%; antibiotics disc method
Acinetobacter B-676 = experiment: Sensitivity of strains: suppression of growth; format: cell-based; conditions: Compound (1) 1.0%; antibiotics disc method
Alkaligenes sp. B-667 = experiment: Sensitivity of strains: suppression of growth; format: cell-based; conditions: Compound (1) 1.0%; antibiotics disc method
Proteus vulgaris RMIT = experiment: NCCLS broth microdilution MIC/MBC; format: cell-based; conditions: for MIC: Proteus vulgaris
Serratia marcescens RMIT = experiment: NCCLS broth microdilution MIC/MBC; format: cell-based; conditions: for MIC: Serratia marcescens
[23] = tested on: Escherichia coli ATCC 25922; experiment: NCCLS broth microdilution MIC/MBC; format: cell-based; conditions: for MIC: Escherichia coli, ATCC25922
[24] = tested on: Pseudomonas aeruginosa ATCC 27853; experiment: NCCLS broth microdilution MIC/MBC; format: cell-based; conditions: for MIC: Pseudomonas aeruginosa, ATCC27853
[25] = tested on: Staphylococcus aureus ATCC 29213; experiment: NCCLS broth microdilution MIC/MBC; format: cell-based; conditions: for MIC: Staphylococcus aureus, ATCC29213
Mycobact tub. H.37RV = experiment: Anti-TB effect, serial double dilution in liquid medium; format: cell-based, M tuberculosis; conditions: 10-14 days incubation at 37° C.; read-out: Minimal Inhibitory Concentration
[26] = Table 9, 35° C., 24 hours, read-out: MIC
[27] = Table 17, 2 or 3 replicates, read-out: MIC

Row | Compound | Suppression of Growth (+/−) [1] | Suppression of Growth (+/−) (Escherichia coli B-683) | Suppression of Growth (+/−) [2] | Suppression of Growth (+/−) [3] | Suppression of Growth (+/−) (Escherichia coli B-65) | Suppression of Growth (+/−) [4] | Suppression of Growth (+/−) [5] | Suppression of Growth (+/−) (Shigella sonnei B-720) | Suppression of Growth (+/−) (Acinetobacter B-681) | Suppression of Growth (+/−) [6] | Suppression of Growth (+/−) [7] | Suppression of Growth (+/−) [8] | Suppression of Growth (+/−) (Alkaligenes sp. B-689) | Suppression of Growth (+/−) [9] | Suppression of Growth (+/−) [10] | Suppression of Growth (+/−) (Acinetobacter B-677) | Suppression of Growth (+/−) [11] | Suppression of Growth (+/−) [12] | Suppression of Growth (+/−) [13] | Suppression of Growth (+/−) [14] | also measured
1 | CCC[C@@H]1C[C@@H](C(=O)N[C@@H]([C@H]2O[C@H](SC)[C@H](O)[C@@H](O)[C@H]2O)[C@@H](C)O)N(C)C1 [Antibiotic 6, lincomycin] | − | − | − | − | + | − | − | − | − | − | + | − | − | − | − | − | − | − | − | − | Suppression of Growth (+/−) (Bacillus sp. B-575; Compound (1) 1.0%, antibiotics disc method): +; Suppression of Growth (+/−) [15]: −; Suppression of Growth (+/−) [16]: −; Suppression of Growth (+/−) [17]: −; Suppression of Growth (+/−) [18]: −; Suppression of Growth (+/−) [19]: −; Suppression of Growth (+/−) [20]: −; Suppression of Growth (+/−) [21]: −; Suppression of Growth (+/−) (Escherichia coli M-17): −; Suppression of Growth (+/−) [22]: −; Suppression of Growth (+/−) (Acinetobacter B-676): −; Suppression of Growth (+/−) (Alkaligenes sp. B-667): −
2 | Cc1onc(-c2ccccc2)c1C(=O)N[C@@H]1C(=O)N2[C@@H]1SC(C)(C)[C@@H]2C(=O)O [Antibiotic 8, oxacillin] | − | − | − | − | − | − | − | − | − | + | + | − | − | − | − | − | − | − | − | + | Suppression of Growth (+/−) (Bacillus sp. B-575): −; Suppression of Growth (+/−) [15]: −; Suppression of Growth (+/−) [17]: −; Suppression of Growth (+/−) [18]: +; Suppression of Growth (+/−) [19]: −; Suppression of Growth (+/−) [20]: −; Suppression of Growth (+/−) [21]: −; Suppression of Growth (+/−) (Escherichia coli M-17): −; Suppression of Growth (+/−) [22]: −; Suppression of Growth (+/−) (Acinetobacter B-676): −; Suppression of Growth (+/−) (Alkaligenes sp. B-667): −
3 | CC[C@H]1OC(=O)[C@H](C)[C@@H](O[C@H]2C[C@@](C)(OC)[C@@H](O)[C@H](C)O2)[C@H](C)[C@@H](O[C@@H]2O[C@H](C)C[C@H](N(C)C)[C@H]2O)[C@](C)(O)C[C@@H](C)C(=O)[C@H](C)[C@@H](O)[C@]1(C)O [Antibiotic 14, erythromycin] | + | + | − | − | + | − | − | − | − | − | − | + | − | + | − | − | − | − | − | − | Suppression of Growth (+/−) [15]: −; Suppression of Growth (+/−) [16]: −; Suppression of Growth (+/−) [17]: −; Suppression of Growth (+/−) [18]: −; Suppression of Growth (+/−) [19]: −; Suppression of Growth (+/−) [20]: −; Suppression of Growth (+/−) [21]: −; Suppression of Growth (+/−) (Escherichia coli M-17): +; Suppression of Growth (+/−) [22]: −; Suppression of Growth (+/−) (Acinetobacter B-676): −; Suppression of Growth (+/−) (Alkaligenes sp. B-667): −
4 | CCCCCCCCCCCCCCCC[N+](C)(C)C.[Br-] [CTAB, cetyl trimethyl ammonium bromide] |  |  |  |  |  |  |  |  |  |  |  |  |  |  |  |  |  |  |  |  | MIC (Proteus vulgaris RMIT): 128 µg/mL; MMC (Proteus vulgaris RMIT; Table 17, 2 or 3 replicates): 256 µg/mL; MIC (Serratia marcescens RMIT): 128 µg/mL; MMC (Serratia marcescens RMIT; Table 17, 2 or 3 replicates): 128 µg/mL; MIC [23]: 16 µg/mL; MMC ([23]; Table 17, 2 or 3 replicates): 16 µg/mL; MIC [24]: 512 µg/mL; MMC ([24]; Table 17, 2 or 3 replicates): >512 µg/mL; MIC [25]: 16 µg/mL; MMC ([25]; Table 17, 2 or 3 replicates): 32 µg/mL
5 | [H]/N=C(\N/C(=N/[H])NCCCCCCNC(=N)NC(=N)Nc1ccc(Cl)cc1)Nc1ccc(Cl)cc1 [Chlorhexidine] |  |  |  |  |  |  |  |  |  |  |  |  |  |  |  |  |  |  |  |  | MIC (Proteus vulgaris RMIT; [26]): 6 µg/mL (≈ 11.9 µM); MIC (Proteus vulgaris RMIT; [27]): 6 µg/mL (≈ 11.9 µM); MMC (Proteus vulgaris RMIT; Table 9, 35° C., 24 hours): 128 µg/mL; MMC (Proteus vulgaris RMIT; Table 17, 2 or 3 replicates): 128 µg/mL; MIC (Serratia marcescens RMIT; [26]): 16 µg/mL (≈ 31.7 µM); MIC (Serratia marcescens RMIT; [27]): 16 µg/mL (≈ 31.7 µM); MMC (Serratia marcescens RMIT; Table 9, 35° C., 24 hours): 32 µg/mL; MMC (Serratia marcescens RMIT; Table 17, 2 or 3 replicates): 32 µg/mL; MIC [23, 26]: 2 µg/mL (≈ 3.96 µM); MIC [23, 27]: 2 µg/mL (≈ 3.96 µM); MMC ([23]; Table 9, 35° C., 24 hours): 4 µg/mL; MMC ([23]; Table 17, 2 or 3 replicates): 4 µg/mL; MIC [24, 26]: 32 µg/mL (≈ 63.3 µM); MIC [24, 27]: 32 µg/mL (≈ 63.3 µM); MMC ([24]; Table 9, 35° C., 24 hours): 64 µg/mL; MMC ([24]; Table 17, 2 or 3 replicates): 64 µg/mL; MIC [25, 26]: 2 µg/mL (≈ 3.96 µM); MIC [25, 27]: 2 µg/mL (≈ 3.96 µM); MMC ([25]; Table 9, 35° C., 24 hours): 8 µg/mL; MMC ([25]; Table 17, 2 or 3 replicates): 8 µg/mL
6 | CC[C@@H](CO)NCCN[C@@H](CC)CO [Ethambutol] |  |  |  |  |  |  |  |  |  |  |  |  |  |  |  |  |  |  |  |  | MIC (Mycobact tub. H.37RV): 1 to 2.5 µg/mL (≈ 4.89 to 12.2 µM)
7 | NNC(=O)c1ccncc1 [Isoniazid] |  |  |  |  |  |  |  |  |  |  |  |  |  |  |  |  |  |  |  |  | MIC (Mycobact tub. H.37RV): 0.02 to 0.1 µg/mL (≈ 0.146 to 0.729 µM)
8 | gentamycin [Antibiotic 3] | + | + | − | + | + | − | + | − | − | − | + | + | + | + | − | − | − | + | − | + | Suppression of Growth (+/−) [15]: −; Suppression of Growth (+/−) [16]: −; Suppression of Growth (+/−) [17]: −; Suppression of Growth (+/−) [18]: +; Suppression of Growth (+/−) [19]: −; Suppression of Growth (+/−) [20]: −; Suppression of Growth (+/−) [21]: −; Suppression of Growth (+/−) (Escherichia coli M-17): +; Suppression of Growth (+/−) [22]: −; Suppression of Growth (+/−) (Acinetobacter B-676): −; Suppression of Growth (+/−) (Alkaligenes sp. B-667): −
